Here are results for three molecules from patent US6680067B2 (priority 2001, dated 2004).

For series [1] the following is noted: Shafer et al. 1991; cited from earlier work.
A further series has as its system Sprague-Dawley rats. The series is described as follows: rat cold ethanol tail-flick test (analgesic effect). The format is in vivo. Conditions: intramuscular, 25 μM/kg, FIG. 5.
Series [2] in a line: pharmacokinetics of nalbuphine in rat plasma after intramuscular injection. Conditions: for k01: hydrochloride. How it is done: Each group consisted of 6 rats and each rat was injected once intramuscularly on the rear leg.
The nature of series [3]: pharmacokinetics of nalbuphine in beagle plasma after intramuscular injection. The following applies: for k01: hydrochloride.
[4] abbreviates: male, Sprague-Dawley, rat, plasma, im, 24 mg/kg.
[5] abbreviates: beagle, dog, plasma, im, 5 mg/kg.
Where [6] appears, read: beagles, i.m., dose 5 mg/kg, n = 5, mean ± S.E.

Structures can show the parent of a compound that is named as a salt.

With `Oc1ccc2c(c1)[C@@]13CCCC[C@@]1(O)[C@@H](C2)N(CC1CCC1)CC3` [butorphanol], the “dose needed to elicit the same analgesic effect” value in series [1] was 2 mg.

Turning to `CN1CC[C@]23c4c5ccc(O)c4O[C@H]2[C@@H](O)C=C[C@H]3[C@H]1C5` [morphine], the “dose needed to elicit the same analgesic effect” value in series [1] was 10 mg.

In the case of `Oc1ccc2c3c1O[C@H]1[C@@H](O)CC[C@@]4(O)[C@@H](C2)N(CC2CCC2)CC[C@]314` [Nalbuphine-HCl, nalbuphine hydrochloride], the “10% analgesic effect (duration)” value in the series with Sprague-Dawley rats worked out at 2.7 h. In the series on Sprague-Dawley rats, the “50% analgesic effect (duration)” value stood at 1.2 h. Moreover, the “β or k10” value in series [2] (Sprague-Dawley rats, i.m., 24 mg/kg (FIG. 7), means ± S.E.) was determined as 0.43 ± 0.21 h⁻¹. The k01 in series [2] (Sprague-Dawley rats, i.m., 24 mg/kg (FIG. 7), means ± S.E., 24 mg/kg) amounted to 12.1 ± 14.1 h⁻¹; in series [2] (Sprague-Dawley rats, i.m., 24 mg/kg (FIG. 7), means ± S.E., listed as nalbuphine hydrochloride, 24 mg/kg) it was 12.1 ± 14.1 h⁻¹; in series [3] (beagles, i.m., dose 5 mg/kg, n = 5, mean ± S.E., listed as Nal-HCl), 82.5 ± 43.9 h⁻¹; in series [3] (beagles, i.m., dose 5 mg/kg, n = 5, mean ± S.E., listed as Nalbuphine HCl) it was 82.5 ± 43.9 h⁻¹; in series [3] (beagles, i.m., dose 5 mg/kg, n = 5, mean ± S.E., listed as nalbuphine hydrochloride) it was 82.5 h⁻¹. In addition, the AUC amounted to 8040 ± 2880 ng·h/mL in series [2] (setting [4]) and 1870 ± 203 ng·h/mL in series [3] (setting [5]). Also, the CL/F in series [2] (setting [4]) was 58.3 mL/min/kg; in series [3] (setting [5]), 46.7 mL/min/kg. Moreover, the Cmax in series [2] (setting [4]) amounted to 2230 ± 669 ng/mL; in series [3] (setting [5]) it was 2460 ± 755 ng/mL. The MRT was 180 ± 72 min in series [2] (setting [4]) and 132 ± 30 min in series [3] (setting [5]). For the same molecule, the Tmax in series [2] (setting [4]) came out at 27 ± 14.4 min; in series [3] (setting [5]) it was 5.4 ± 2.4 min. Further, the half-life in series [2] (male, Sprague-Dawley, rat, plasma, im, 24 mg/kg, t1/2, k01, Sprague-Dawley rats, 24 mg/kg (FIG. 7), means ± S.E.) is 8.4 ± 9 min; in series [2] (male, Sprague-Dawley, rat, plasma, im, 24 mg/kg, t1/2, β (elimination half-life), Sprague-Dawley rats, 24 mg/kg (FIG. 7), means ± S.E.), 114 ± 48 min; in series [3] (beagle, dog, plasma, im, 5 mg/kg, t1/2, k01, beagles, n = 5, mean ± S.E.), 7.2 ± 4.2 min; in series [3] (beagle, dog, plasma, im, 5 mg/kg, t1/2, α, beagles, n = 5, mean ± S.E.), 7.8 ± 6.6 min; in series [3] (beagle, dog, plasma, im, 5 mg/kg, t1/2, β (elimination half-life), beagles, n = 5, mean ± S.E.), 168 ± 54 min. In series [3] (setting [6]), this molecule yielded a α of 67.9 ± 29.3 h⁻¹. Besides, the β in series [3] (setting [6]) was 0.42 ± 0.15 h⁻¹.

The AUC is the area under the concentration-time curve, a measure of exposure. Read a high AUC as high exposure. As a reminder, the CL/F is the apparent clearance, not corrected for the fraction that reaches the circulation. A word on the Cmax: it is the peak of the concentration-time curve. A word on the MRT: it is a mean duration of stay, worked out from the concentration-time curve. The Tmax is the time at which the peak concentration occurs. As a reminder, the half-life is how long it takes for the measured level to halve. The low end stands for fast loss, the high end for slow loss.
